Experimental data as given in patent EP2433927A1, “KETOXIME ESTER PHOTOINITIATOR” (Changzhou Tronly New Electronic Materials Co., Ltd, priority 2009, dated 2010).

Tests used:
[1] = Thermal stability by TGA (temperature at weight loss); assay type: physicochemical; conditions: for Temp. at Weight Loss 5% / Temp. at Weight Loss 10% / Temp. at Weight Loss 15%: TGA, N2 at 10 °C/min; for Temp. at Weight Loss 5%: 5% weight loss; for Temp. at Weight Loss 10%: 10% weight loss; for Temp. at Weight Loss 15%: 15% weight loss; for thermal stability: result in words, compared with material A (OXE-1)
[2] = Solubility of the photoinitiators in organic solvents; assay type: physicochemical; conditions: 20°C, 100 g solvent

Temp. at Weight Loss 5% [1]	Temp. at Weight Loss 10% [1]	Temp. at Weight Loss 15% [1]	solubility ([2]; solvent PGMEA)	solubility ([2]; solvent cyclohexanone)	SMILES	thermal stability [1]
185 °C	201 °C	213 °C			CCCCCCC(=NOC(=O)c1ccccc1)C(=O)c1ccc(Sc2ccccc2)cc1 [A, 1-(4-phenylthiophenyl)-n-octane-1,2-dione-2-benzoic acid oxime ester, reference compound]	
205 °C	225 °C	236 °C	27.49 g	35 g	O=C(ON=C(CC1CCCC1)C(=O)c1ccc(Sc2ccccc2)cc1)c1ccccc1 [B, 1-(4-phenylthiophenyl)-(3-cyclopentyl)-propane-1,2-dione-2-benzoic acid oxime ester]	better thermal stability than that of material A
230 °C	245 °C	255 °C	6.93 g	18 g	CCn1c2ccc(C(=O)C(CC3CCCC3)=NOC(=O)c3ccccc3)cc2c2cc(C(=O)c3ccccc3C)ccc21 [C, 1-(6-o-methylbenzoyl-9-ethylcarbazole-3-yl)-(3-cyclopentyl)-propane-1,2-dione-2-benzoic acid oxime ester]	better thermal stability than that of material A
